Laboratory results as given in patent US10597388B2, “Pyridazinone herbicides” (FMC CORPORATION, priority 2014, dated 2020).

What was measured:
Format in all cases: in vivo
[1] = system: foxtail, giant (giant foxtail, Setaria faberii); assay: Test C greenhouse herbicide test, pre- and postemergence
Summary of the method: (§1)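 Seeds sown in loam–sand blend treated preemergence; plants in peat-based medium sprayed postemergence at 2–18 cm (1- to 4-leaf stage); chemicals in non-phytotoxic solvent with surfactant. Greenhouse 13–15 d, then visual rating versus controls on 0–100 scale (0 no effect, 100 complete control).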

[2] = system: oilseed rape (Brassica napus); assay: as above
Summary of the method: as §1

[3] = system: johnsongrass (Sorghum halepense); assay: as above
Summary of the method: as §1

[4] = system: morningglory (Ipomoea coccinea); assay: as above
Summary of the method: as §1

[5] = system: crabgrass, large (large crabgrass, Digitaria sanguinalis); assay: as above
Summary of the method: as §1

[6] = system: lambsquarters (Chenopodium album); assay: as above
Summary of the method: as §1

[7] = system: waterhemp (common waterhemp, Amaranthus rudis); assay: as above
Summary of the method: as §1

[8] = system: wheat (winter wheat, Triticum aestivum); assay: as above
Summary of the method: as §1

[9] = system: corn (Zea mays); assay: as above
Summary of the method: as §1

[10] = system: kochia (Kochia scoparia); assay: Test A greenhouse herbicide test, pre- and postemergence
Summary of the method: (§2)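 Seeds in loam–sand blend received a preemergence directed soil spray; plants at 2–10 cm, one- to two-leaf stage, received postemergence sprays. Compounds in a non-phytotoxic solvent with surfactant. After about 10 d in a greenhouse, injury rated visually versus untreated controls on a 0–100 scale (100 = complete control).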

[11] = system: barnyardgrass (Echinochloa crus-galli); assay: as above
Summary of the method: as §2

[12] = Postemergence, 31 g ai/ha, scale 0 to 100 (0 no effect, 100 complete control)
[13] = Postemergence, 62 g ai/ha, 0 to 100 scale (0 no effect, 100 complete control)
[14] = Postemergence, 250 g ai/ha, scale 0 to 100, 0 no effect, 100 complete control, 13 to 15 d
[15] = Preemergence, 31 g ai/ha, scale 0 to 100, 0 is no effect, 100 is complete control
[16] = Preemergence, 62 g ai/ha, scale 0 to 100, 0 is no effect, 100 is complete control
[17] = Preemergence, 125 g ai/ha, scale 0 to 100, 0 is no effect, 100 is complete control
[18] = Preemergence, 250 g ai/ha, scale 0 to 100, 0 no effect, 100 complete control
[19] = postemergence, 125 g ai/ha, scale 0 to 100, 0 no effect, 100 complete control
[20] = Postemergence, 125 g ai/ha, 0 to 100 scale where 0 is no effect and 100 is complete control
[21] = Postemergence, 500 g ai/ha, visual rating after approx. 10 d, 0 to 100 scale (0 no effect, 100 complete control)
[22] = Preemergence, 125 g ai/ha, 0 to 100 scale where 0 is no effect and 100 is complete control
[23] = Preemergence, 500 g ai/ha, 0 to 100 scale where 0 is no effect and 100 is complete control

COC(=O)Oc1c(C)nn(C)c(=O)c1-c1ccc(Br)c2ccccc12 [Compound 145]
0: Plant response rating, Wheat [8, 15] | Plant response rating, Wheat [8, 16] | Plant response rating, Wheat [8, 17] | Plant response rating, Corn [9, 15] | Plant response rating, Corn [9, 16] | Plant response rating, Corn [9, 17]
100: Plant response rating, Morningglory [4, 14] | Morningglory plant response rating [4, 18] | Morningglory plant response rating [4, 19] | Plant response rating, Lambsquarters [6, 14] | Plant response rating, Lambsquarters [6, 17] | Lambsquarters plant response rating [6, 18] | Lambsquarters plant response rating [6, 19] | Waterhemp plant response rating [7, 13] | Plant response rating, Waterhemp [7, 14] | Waterhemp plant response rating [7, 18] | Waterhemp plant response rating [7, 19] | Plant response rating, Kochia [10, 20] | Plant response rating, Kochia [10, 21] | Plant response rating, Kochia [10, 23]
15: Plant response rating, Crabgrass, Large [5, 12] | Corn plant response rating [9, 18]
75: Plant response rating, Foxtail, Giant [1, 17] | Plant response rating, Morningglory [4, 15]
10: Plant response rating, Johnsongrass [3, 12] | Johnsongrass plant response rating [3, 13] | Plant response rating, Johnsongrass [3, 15] | Crabgrass, Large plant response rating [5, 13] | Crabgrass, Large plant response rating [5, 19] | Plant response rating, Corn [9, 12] | Plant response rating, Corn [9, 14]
98: Plant response rating, Oilseed Rape [2, 12] | Oilseed Rape plant response rating [2, 13] | Oilseed Rape plant response rating [2, 18] | Morningglory plant response rating [4, 13] | Plant response rating, Morningglory [4, 17] | Plant response rating, Lambsquarters [6, 12] | Lambsquarters plant response rating [6, 13] | Plant response rating, Waterhemp [7, 16] | Plant response rating, Waterhemp [7, 17]
5: Plant response rating, Oilseed Rape [2, 15] | Plant response rating, Johnsongrass [3, 16] | Plant response rating, Johnsongrass [3, 17] | Johnsongrass plant response rating [3, 18] | Plant response rating, Crabgrass, Large [5, 15] | Wheat plant response rating [8, 18] | Corn plant response rating [9, 13] | Corn plant response rating [9, 19]
55: Plant response rating, Foxtail, Giant [1, 14] | Plant response rating, Crabgrass, Large [5, 17] | Crabgrass, Large plant response rating [5, 18]
80: Plant response rating, Morningglory [4, 16]
85: Plant response rating, Waterhemp [7, 15] | Wheat plant response rating [8, 19]
35: Plant response rating, Foxtail, Giant [1, 15]
90: Plant response rating, Oilseed Rape [2, 14] | Plant response rating, Oilseed Rape [2, 16] | Plant response rating, Oilseed Rape [2, 17] | Plant response rating, Lambsquarters [6, 15] | Plant response rating, Lambsquarters [6, 16] | Plant response rating, Wheat [8, 14] | Kochia plant response rating [10, 22] | Plant response rating, Barnyardgrass [11, 21] | Plant response rating, Barnyardgrass [11, 23]
40: Plant response rating, Wheat [8, 12]
20: Plant response rating, Foxtail, Giant [1, 12] | Plant response rating, Johnsongrass [3, 14] | Johnsongrass plant response rating [3, 19] | Plant response rating, Crabgrass, Large [5, 14] | Plant response rating, Barnyardgrass [11, 20] | Barnyardgrass plant response rating [11, 22]
60: Plant response rating, Foxtail, Giant [1, 16]
25: Foxtail, Giant plant response rating [1, 13] | Foxtail, Giant plant response rating [1, 19]
95: Foxtail, Giant plant response rating [1, 18] | Oilseed Rape plant response rating [2, 19] | Plant response rating, Morningglory [4, 12] | Plant response rating, Waterhemp [7, 12]
50: Plant response rating, Crabgrass, Large [5, 16] | Wheat plant response rating [8, 13]
